A word on the IC50: it is the point on the concentration scale where inhibition reaches its midpoint.

SMILES strings stand for the structures.

This passage reports IC50 results from ChEMBL document CHEMBL5727547, “Sodium channel modulators” (2020).

Assay [1] can be described thus: (§1) Automated patch clamp (Inactivation State Block): Test Protocol for Determining the Potency of Compounds on Nav1.2 and Nav1.6 Subtypes of Voltage-Gated Sodium Ion Channels Expressed in Mammalian CellsCell culture procedures: Chinese hamster ovary (CHO) cells were stably transfected with the cDNA sequence of either the human SCN2A or SCN8A genes to create hNav1.2 or hNav1.6 cells respectively. The cell lines were cultured in Ham's F-12 medium supplemented with 10% fetal bovine serum and antibiotics in a tissue incubator at 37° C. under a humidified air/CO2 mixture (95/5 v/v). On the day of the experiment, cells were washed twice with Hank's balanced salt solution, treated with trypsin, and resuspended in fresh culture media at a density of 4−6×10^6 cells in 20 ml. Immediately before placing in the IonWorks Quattro instrument, cells were washed in Hank's balanced salt solution to remove culture medium and re-suspended in 3 ml of Hank's balanced salt solution. Automated patch clamp recordings of cells using the IonWorks Quattro Instrument: The assay used a 384 microwell plate, which enabled 20 compounds to be studied at four different concentrations in quadruplicate as well as allowing a vehicle control group and a positive control group using mexiletine at 8 different concentrations. Cells were added to the wells of the Population Patch Clamp planar electrode using a 48-channel pipettor in a volume of 6 μL, per well. After 5 minutes incubation at ambient temperature with compounds or vehicle, membrane currents were recorded using the patch clamp amplifier. The pulse pattern was repeated twice, before and after compound addition and peak current amplitudes were measured at TP12 to measure Inactivation State Block. Data analysis: Data acquisition and analyses were carried out using the IonWorks Quattro system operation software which uses an algorithm to correct data for leak currents. Concentration-response curves were fitted by non-linear least squares regression allowing calculation of an IC50 value (μM), being the concentration of the compound producing half-maximal inhibition.

Assay [2] is described as follows: as §1, with “(Tonic” for “(Inactivation State”, “TP11” for “TP12”, “10 Hz Frequency-dependent” for “Inactivation State”.
A short description of assay [3]: Automated patch clamp (Tonic Block): Test Protocol for Determining the Potency of Compounds on Nav1.2 and Nav1.6 Subtypes of Voltage-Gated Sodium Ion Channels Expressed in Mammalian CellsCell culture procedures: Chinese hamster ovary (CHO) cells were stably transfected with the cDNA sequence of either the human SCN2A or SCN8A genes to create hNav1.2 or hNav1.6 cells respectively. The cell lines were cultured in Ham's F-12 medium supplemented with 10% fetal bovine serum and antibiotics in a tissue incubator at 37° C. under a humidified air/CO2 mixture (95/5 v/v). On the day of the experiment, cells were washed twice with Hank's balanced salt solution, treated with trypsin, and resuspended in fresh culture media at a density of 4−6×10^6 cells in 20 ml. Immediately before placing in the IonWorks Quattro instrument, cells were washed in Hank's balanced salt solution to remove culture medium and re-suspended in 3 ml of Hank's balanced salt solution. Automated patch clamp recordings of cells using the IonWorks Quattro Instrument: The assay used a 384 microwell plate, which enabled 20 compounds to be studied at four different concentrations in quadruplicate as well as allowing a vehicle control group and a positive control group using mexiletine at 8 different concentrations. […]. For orientation: Patch clamp records ionic current or voltage across a cell membrane.

In the case of `Cc1nn(C)c(C)c1OCCCNC(c1ccccn1)c1ccccn1`, the half-maximal inhibitory concentration (IC50) in assay [1] and in assay [2] was greater than 10 µM in each case.

Take `Cc1n[nH]c(C)c1OCCCNCc1cccc(-c2cncnc2)c1`: the half-maximal inhibitory concentration (IC50) in assay [1] and in assay [2] was greater than 10 µM in each case.

Consider `Cc1cccc(C)c1OCCCNCc1cc(C(C)(C)C)cc(C(C)(C)C)c1`, for which the half-maximal inhibitory concentration (IC50) in assay [1] and in assay [2] was greater than 10 µM in each case.

For the compound `Cc1nn(C)c(C)c1OCCCNCc1cccc(-c2cncnc2)c1`, the IC50 in assay [1] and in assay [2] was greater than 10 µM in each case.

In the case of `Cc1cccc(C)c1OCCCNCc1cccc(C(F)(F)F)c1`, the concentration for half-maximal inhibition (IC50) in assay [3], in assay [1] and in assay [2] was greater than 10 µM each time.

As to `Cc1cccc(C)c1OCCCNCc1ccc(-c2ccccc2)cc1`, the IC50 in assay [1] and in assay [2] was greater than 1000 µM in each case.

As for `Cc1cccc(C)c1OCCCNCc1cccc(C#N)c1`, the 50% inhibitory concentration (IC50) in assay [1] and in assay [2] was 2 µM in each case.

For the compound `Cc1n[nH]c(C)c1OCCCNC(c1ccccn1)c1ccccn1`, the IC50 in assay [1] and in assay [2] was greater than 10 µM in each case.

For the compound `Cc1cccc(C)c1OCCCNC(c1ccccn1)c1ccccn1`, the IC50 in assay [1] was 0.1 µM.
